The values that follow come from publication PMC3646888 (PLoS ONE, 2013).

Data set [1] deals with T1, CYP2C6 (Rattus norvegicus, UniProt P05178).
T1 sequence (P05178 1-490): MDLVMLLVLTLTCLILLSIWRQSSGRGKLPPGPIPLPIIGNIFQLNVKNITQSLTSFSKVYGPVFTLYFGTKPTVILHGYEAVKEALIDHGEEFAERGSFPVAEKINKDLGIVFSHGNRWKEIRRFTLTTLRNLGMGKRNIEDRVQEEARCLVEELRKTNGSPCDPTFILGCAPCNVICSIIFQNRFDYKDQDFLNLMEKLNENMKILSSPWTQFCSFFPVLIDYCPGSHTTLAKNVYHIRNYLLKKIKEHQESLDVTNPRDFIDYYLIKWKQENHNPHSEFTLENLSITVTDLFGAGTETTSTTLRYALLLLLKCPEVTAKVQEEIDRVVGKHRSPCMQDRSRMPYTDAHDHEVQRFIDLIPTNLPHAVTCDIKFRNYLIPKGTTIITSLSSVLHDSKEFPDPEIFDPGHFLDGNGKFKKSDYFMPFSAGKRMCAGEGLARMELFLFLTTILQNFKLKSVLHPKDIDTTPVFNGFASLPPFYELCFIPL
Put plainly: Fluorescence-based CYP assay, recombinant CYP2C6, substrate EFC. The data set is classed as in vitro ADME. How it is done:
(§1) These assays were performed by methods similar to those described by VanAlstine and Hough, Stresser et al., Wulff et al., Henderson et al., and Crespi et al., with minor modifications. All incubations were performed in a final volume of 200 µL of 50 mM potassium phosphate buffer at pH 7.4 containing 1% acetonitrile. CYP inhibitor studies were performed according to the parameters of Table 1. Substrate concentrations were chosen to be near known Km values. As described in the references cited, two different NADPH regenerating systems were used depending on the substrates used (Table 1). Inhibitors were added to either “low” NADPH-regenerating system (final concentration of 8.1 µM NADP^+, 0.4 mM glucose-6-phosphate, 0.4 mM magnesium chloride, 0.2 U/mL glucose-6-phosphate dehydrogenase) or to “high” NADPH-regenerating system (final concentration of 1.3 mM NADP^+, 3.3 mM glucose-6-phosphate, 3.3 mM magnesium chloride, 0.4 U/mL glucose-6-phosphate dehydrogenase) in a total of 0.1 mL buffer. […] For assays utilizing “low” regenerating systems, product formation was monitored continuously by a Victor3 1420 Multilabel Plate Counter at the designated wavelengths (Table 1). […] Product formation was then measured at the designated wavelengths (Table 1). […]

The target in data set [2] is T2, CYP2B6 (Homo sapiens, UniProt P20813).
T2 sequence (P20813 1-491): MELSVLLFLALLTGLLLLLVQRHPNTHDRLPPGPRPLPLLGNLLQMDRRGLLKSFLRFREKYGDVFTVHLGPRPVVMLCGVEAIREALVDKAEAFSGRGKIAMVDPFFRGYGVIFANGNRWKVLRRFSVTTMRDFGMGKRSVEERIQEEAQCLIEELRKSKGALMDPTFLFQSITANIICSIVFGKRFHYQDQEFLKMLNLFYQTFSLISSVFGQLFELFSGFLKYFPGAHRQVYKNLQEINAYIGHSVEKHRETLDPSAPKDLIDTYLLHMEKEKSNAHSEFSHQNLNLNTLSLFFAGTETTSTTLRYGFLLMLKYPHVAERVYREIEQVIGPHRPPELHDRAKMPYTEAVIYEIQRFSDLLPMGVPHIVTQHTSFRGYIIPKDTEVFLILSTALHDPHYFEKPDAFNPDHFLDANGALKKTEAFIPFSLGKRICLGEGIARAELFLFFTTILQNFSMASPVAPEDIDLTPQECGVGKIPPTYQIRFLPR
The data set is described as follows: Fluorescence-based CYP assay, recombinant CYP2B6, substrate EFC. It counts as in vitro ADME. The procedure: as §1

For data set [3], the target named is T3, CYP3A4 (Homo sapiens, UniProt P08684). Put plainly: Fluorescence-based CYP3A4 assay with DBF as substrate. The data set is classed as in vitro ADME. The procedure: (§2) These assays were performed by methods similar to those described by VanAlstine and Hough, Stresser et al., Wulff et al., Henderson et al., and Crespi et al., with minor modifications. All incubations were performed in a final volume of 200 µL of 50 mM potassium phosphate buffer at pH 7.4 containing 1% acetonitrile. CYP inhibitor studies were performed according to the parameters of Table 1. Substrate concentrations were chosen to be near known Km values. As described in the references cited, two different NADPH regenerating systems were used depending on the substrates used (Table 1). […] Samples were pre-incubated at 37°C for the designated times, and the reactions were initiated with the addition of a substrate and enzyme mixtures (Table 1). […] For the assays utilizing the “high” regenerating system, enzyme reactions were terminated at the designated time by the addition of 75 µL of 2N NaOH, followed by a 2 h post-incubation at 37°C. Product formation was then measured at the designated wavelengths (Table 1). For the “low” regenerating system assays, blanks and standards were prepared in 0.1 mL buffer without the regenerating system. For the “high” regenerating system assays, blanks and standards containing 0.1 mL of buffer received 75 µL of 2N NaOH following pre-incubation.

The target of data set [4] is T4, CYP1A2h (Homo sapiens, UniProt P05177).
T4 sequence (P05177 1-516): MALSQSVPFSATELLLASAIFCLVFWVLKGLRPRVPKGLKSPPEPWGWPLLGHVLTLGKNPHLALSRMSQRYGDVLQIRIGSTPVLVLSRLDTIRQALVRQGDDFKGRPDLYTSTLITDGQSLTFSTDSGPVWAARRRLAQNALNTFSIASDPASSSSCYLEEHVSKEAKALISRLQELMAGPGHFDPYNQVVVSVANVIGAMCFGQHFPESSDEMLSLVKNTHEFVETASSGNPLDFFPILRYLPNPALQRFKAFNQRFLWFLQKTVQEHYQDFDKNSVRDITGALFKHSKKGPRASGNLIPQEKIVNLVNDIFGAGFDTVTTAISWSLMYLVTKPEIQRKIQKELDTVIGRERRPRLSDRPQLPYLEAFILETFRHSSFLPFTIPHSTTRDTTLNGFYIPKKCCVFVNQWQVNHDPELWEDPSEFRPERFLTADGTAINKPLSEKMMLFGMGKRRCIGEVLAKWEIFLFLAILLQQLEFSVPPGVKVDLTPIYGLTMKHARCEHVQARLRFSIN
The data set is described as follows: Fluorescence-based CYP assay, recombinant CYP1A2h, substrate CEC. It counts as in vitro ADME. How it is done: as §2

For data set [5], the target named is T3, CYP3A4. More on the design: method as in PMID 10884437. The settings on record: 10 µM; cited from earlier work.

The structures appear in SMILES notation. “Also recorded” adds a separate entry of the source.

For orientation: IC50 means the point on the concentration scale where inhibition reaches its midpoint.

T3 sequence (P08684 whole entry): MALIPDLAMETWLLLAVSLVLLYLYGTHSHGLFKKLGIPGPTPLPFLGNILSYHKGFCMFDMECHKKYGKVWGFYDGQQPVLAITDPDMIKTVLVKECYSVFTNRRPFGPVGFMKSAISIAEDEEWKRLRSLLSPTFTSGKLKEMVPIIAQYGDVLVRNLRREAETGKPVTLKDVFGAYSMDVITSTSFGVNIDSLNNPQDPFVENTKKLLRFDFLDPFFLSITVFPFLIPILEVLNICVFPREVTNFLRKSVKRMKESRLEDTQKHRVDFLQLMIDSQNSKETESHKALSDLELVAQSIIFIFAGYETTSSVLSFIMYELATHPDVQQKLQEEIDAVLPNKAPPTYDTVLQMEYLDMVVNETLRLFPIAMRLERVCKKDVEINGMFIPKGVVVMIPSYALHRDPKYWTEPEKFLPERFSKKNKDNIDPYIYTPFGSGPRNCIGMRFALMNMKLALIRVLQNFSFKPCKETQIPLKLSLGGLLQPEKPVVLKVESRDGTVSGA

For the compound `Clc1ccccc1C(c1ccccc1)(c1ccccc1)n1ccnc1` [Clotrimazole], the “Inhibition of CYP2C6 (in words)” value in data set [1] (positive control) is given as “potent inhibitor”. Moreover, the “Inhibition of CYP2B6 (in words)” value in data set [2] (positive control) was “potent inhibitor”.
Regarding `Clc1ccccc1C(c1ccccc1)(c1ccccc1)n1cccn1` [TRAM-34, 1-[(2-chlorophenyl)diphenylmethyl]-1H-pyrazole], the IC50 in data set [3] was 3600 nM; in data set [1] (recombinant rat CYP2C6, EFC 5 µM), 2900 nM; in data set [4], more than 80000 nM; in data set [2], 900 nM. Further, in data set [4] (up to 80 µM), the “Inhibition of CYP1A2h (in words)” value is “little to no inhibition; also recorded: no inhibitory effects”. The “Inhibition of CYP3A4 with BFC as substrate (in words)” value in data set [5] was “did not inhibit”.
